Ends that are not written are not given here.
Key:
[1] = tested on: SAg-specific hybridoma cells / T cell line with VAVY APC; experiment: Antigen Processing Independent Presentation System (APIPS) assay, fresh or fixed VAVY APC; assay type: cell-based, DR3 mice; conditions: DR3 hybridoma clone (IL-2, 48 h) or T cell line (IFN-γ, 24 h)
Experimental: (§1) FIG. 2: identification of apitopes within HIP-115. (A) DR3 mice were immunized with SAg and hybridomas were generated. 5×10^4 SAg-specific hybridoma cells were cultured with 5×10^4 fresh or fixed commercial APC (VAVY) cells. T cell proliferation was measured by IL-2 ELISA on supernatants collected after 48 h. The graph represents the mean of duplicate measurements±SEM. (B) DR3 mice were immunized with HIP-115 and a T cell line was established. Ten days after immunization the LN and spleens were harvested and cultured with different concentrations of peptide (0.1-1-2.5 and 5 μg/ml); 2×10^6 cells/ml APC+1×10^6 cells/ml CD4 T cells per well. At day 7 the cells were re-stimulated with the same concentrations of peptide. On day 14 an APIPS test was done using commercial APC (VAVY). After 24 h, antigen-induced T cell activation was measured by IFN-γ ELISA and shown as IFN-γ concentration (pg/ml). The graph represents the mean of duplicate measurements±SEM. LN, lymph nodes; APC, Antigen presenting cell; APIPS, Antigen Processing Independent Presentation System.
as §1, with “3:” for “2:”, “HIP-241125.” for “HIP-115.”, “HIP-241125+HIP-24DG” for “HIP-115”
(§2) FIG. 5: Identification of apitopes within HIP-17GN. DR3 mice were immunized with HIP-17GN and a T cell line was established. Ten days after immunization the LN and spleens were harvested and cultured with different concentrations of peptide (0.1-1-2.5 and 5 μg/ml); 2×10^6 cells/ml APC+1×10^6 cells/ml CD4 T cells per well. At day 7 the cells were re-stimulated with the same concentrations of peptide. On day 14 an APIPS test was done using commercial APC (VAVY). After 24 h, antigen-induced T cell activation was measured by IFN-γ ELISA and shown as OD values. The graph represents the mean of triplicate measurements±SEM. LN, lymph nodes; APC, Antigen presenting cell; APIPS, Antigen Processing Independent Presentation System.
as §2, with “6:” for “5:”, “HIP-12AK.” for “HIP-17GN.”, “HIP-12AK” for “HIP-17GN”, “IFN-γ concentration (pg/ml).” for “OD values.”, “duplicate” for “triplicate”
Antigen-specific clones or TCL were tested for their reactivity to the peptides, presented by fixed or not fixed (fresh) cells (VAVY or MGAR) (=APCs). 5×10^4 cells from the individual clones were cultured with 10 μg/ml peptide and 5×10^4 fixed or fresh APCs. […]

[2] = tested on: LN cells and splenocytes upon SAg or peptide restimulation; experiment: Ex vivo tolerization experiment, DR2tg mice; assay type: in vivo; conditions: DR2 mice, IFN-γ
Experimental: FIG. 7: Ex vivo tolerisation protocol. Mice are injected subcutaneously in the flank with 0.1 μg/ml, 1 μg/ml and 10 μg/ml peptide on days −15, −13 and −11, followed by 3 injections of 100 μg/ml on days −8, −6 and −4 (escalating dose regime). On day 0, mice are immunized subcutaneously at the base of the tail with SAg/CFA or peptide/CFA. Mice are sacrificed 10 days after immunization to measure proliferation of LN cells and splenocytes upon SAg or peptide restimulation. LN, lymph nodes.
FIG. 11: Ex vivo tolerance induction by HIP-9K1-KKK apitope. DR2 mice are injected subcutaneously in the flank with 0.1 μg/ml, 1 μg/ml and 10 μg/ml HIP-9K1-KKK on days −15, −13 and −11, followed by 3 injections of 100 μg/ml on days −8, −6 and −4 (escalating dose regime). On day 0, mice are immunized subcutaneously at the base of the tail with HIP-9FL/CFA. Mice are sacrificed 10 days after immunization to measure proliferation of LN cells and splenocytes upon SAg or peptide restimulation. Data represent mean±SEM of the concentration values for the PBS-treated mice (black lines) and peptide-treated mice (color lines). IFN-γ production expressed as IFN-γ concentration (pg/ml). Two-way ANOVA was used to measure overall treatment effects on T cell activation and p-values are written in the graphs. Bonferonni post-hoc testing was used and significant differences are indicated in the graphs (* p<0.05; **** p<0.0001). LN, lymph nodes. (A) Tolerisation against SAg in LN. (B) Tolerisation against HIP-9FL and HIP-9K1-KKK in LN. (C) Tolerisation against SAg in spleen. (D) Tolerisation against HIP-9FL and HIP-9K1-KKK in spleen.
FIG. 13: Ex vivo tolerance induction by HIP-12G1-KKK apitope. DR2 mice are injected subcutaneously in the flank with 0.1 μg/ml, 1 μg/ml and 10 μg/ml HIP-12G1-KKK on days −15, −13 and −11, followed by 3 injections of 100 μg/ml on days −8, −6 and −4 (escalating dose regime). On day 0, mice are immunized subcutaneously at the base of the tail with HIP-12AK/CFA. Mice are sacrificed 10 days after immunization to measure proliferation of LN cells and splenocytes upon SAg or peptide restimulation. Data represent mean±SEM of the concentration values for the PBS-treated mice (black lines) and peptide-treated mice (color lines). IFN-γ production expressed as IFN-γ concentration (pg/ml). Two-way ANOVA was used to measure overall treatment effects on T cell activation and p-values are written in the graphs. Bonferonni post-hoc testing was used and significant differences are indicated in the graphs (** p<0.01; *** p<0.001: **** p<0.0001). LN, lymph nodes. (A) Tolerisation against HIP-12G1-KKK and HIP-12G1 in LN. (B) Tolerisation against HIP-12G1-KKK in spleen.
DR3tg or DR2tg mice were injected subcutaneously in the flank region with 0.1 μg, 1 μg and 10 μg of peptide on days −15, −13 and −11 respectively, followed by 3 injections of 100 μg peptide on days −8, −6 and −4 (dose escalation schedule). On day 0, the mice were immunised subcutaneously in the base of the tail with 50 μg antigen (parental peptide) emulsified in CFA (peptide/CFA). Ten days after immunisation, draining lymph nodes (LN) and spleens were harvested. LN cells and splenocytes were isolated and cultured in X-vivo 15 medium (supplemented with 2 mM L-glutamine, 50 U/mL penicillin and 50 U/mL streptomycin; Lonza) in 96-well flat bottom plates. To investigate antigen-induced cell proliferation, 0.5×10^6 cells/well were cultured (200 μl/well) for 72 hours with different antigen concentrations (0-25 μg/ml) or with 12.5 μg/ml purified protein derivative (PPD; priming control; Statens serum institut, Copenhagen, Denmark). After 72 hours, supernatant was harvested and stored at −80° C. until further analysis. IFN-γ concentrations in supernatants were assessed by cytokine ELISA (R&D Systems, Abingdon, UK) to measure cell activation.

[3] = tested on: T cell line with MGAR APC; experiment: Antigen Processing Independent Presentation System (APIPS) assay, fresh or fixed MGAR APC; assay type: cell-based, DR2 mice; conditions: DR2 T cell line, IFN-γ, 24 h
Experimental: FIG. 4: Identification of apitopes within HIP-9FL. DR2 mice were immunized with HIP-9FL-KKK and a T cell line was established. Ten days after immunization the LN and spleens were harvested and cultured with different concentrations of peptide (0.1-1-2.5 and 5 μg/ml); 2×10^6 cells/ml APCs+1×10^6 cells/ml CD4 T cells per well. At day 7 the cells were re-stimulated with the same concentrations of peptide. On day 21 an APIPS test was done using commercial APC (MGAR). After 24 h, antigen-induced T cell activation was measured by IFN-γ ELISA and shown as OD values. The graph represents the mean of duplicate measurements±SEM. LN, lymph nodes; APC, Antigen presenting cell; APIPS, Antigen Processing Independent Presentation System.
Antigen-specific clones or TCL were tested for their reactivity to the peptides, presented by fixed or not fixed (fresh) cells (VAVY or MGAR) (=APCs). 5×10^4 cells from the individual clones were cultured with 10 μg/ml peptide and 5×10^4 fixed or fresh APCs. In the case of TCL, 5×10^4 cells were cultured with 10 μg/ml and 25 μg/ml peptide and 2.5×10^4 fixed or fresh APCs. To fixate APCs, cells were incubated with 0.5% paraformaldehyde (Merck, Darmstadt, Germany) (pH7) for 5 min at room temperature (RT). The fixation reaction was stopped by adding 0.4M glycine (Sigma-Aldrich) and washing the cells in RPMI-10% FCS. Additionally, reactivity towards human SAg protein (QBiologicals, Eurofins Amatsigroup, Ghent, Belgium) was measured to identify cryptic epitopes. After 24 h or 48 h, antigen-induced IFN-γ or IL-2 production (respectively) was measured by ELISA (R&D Systems, Abingdon, UK).
DR3tg or DR2tg mice were immunised subcutaneously in the base of the tail with 50 μg peptide emulsified in CFA (peptide/CFA). Ten days after immunisation, draining lymph nodes (LN) and spleens were harvested. […] At day 7, TCL cells were counted and cultured with fresh APC, peptides and IL-2, all at the same concentrations as above. […]

| Substance | behaves as apitope (response to peptide presented by fresh or fixed APC) [1] | tolerization against the peptide itself / parental peptide ([2]; LN) | tolerization against the peptide itself ([2]; spleen) | behaves as apitope (response to peptide presented by fresh or fixed APC) [3] |
| --- | --- | --- | --- | --- |
| KKKGILVSYQIKVKKKK-NH2 [HIP-12G1-KKK, KKKGILVSYQIKVKKKK] | behave as apitopes | tolerization induced | tolerization induced |  |
| KKKVKKIKAFVEQVANVVLYSSDYKKK-NH2 [HIP-9FL-KKK] |  |  |  | behave as apitopes |
| VKKIKAFVEQVANVVLYSSDY-NH2 [HIP-9FL] |  |  |  | behave as apitopes |

Source: US11542316B2, “S-Arrestin peptides and therapeutic uses thereof” (APITOPE INTERNATIONAL NV, priority 2017, dated 2023)
